These results are taken from patent publication US20190110476A1, “NOVEL ISOTHIAZOLAMIDES, PROCESSES FOR THEIR PREPARATION AND THEIR USE AS FUNGICIDES” (priority 2014, published 2019).

SMILES strings stand for the structures. Marks after values point to notes of the source that are not given here.

The nature of one data set: Measurement of LogP values by HPLC on reversed phase columns (EEC directive 79/831 Annex V.A8). In kind it is physicochemical.
Details: not given
The method, boiled down: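 Following EEC directive 79/831 Annex V.A8, lipophilicity was derived from retention on reversed-phase HPLC columns. Separate values are given per diastereoisomer, and UV lambda-max (200–400 nm) was read at the peak signals.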
`COc1ccc(CNc2nsc(C(=O)N(CC(C)C)C3CC3)c2Cl)cc1` [I-900]: the LogP is 4.09[a]. Still for that read-out and setting: then `Nc1nsc(C(=O)NCC2CCCO2)c1Cl` (centres unmarked) [I-013], with 1.02[a]; and `O=C(Nc1ccc(Cl)cc1Cl)c1snc(N(Cc2ccccc2)Cc2ccccc2)c1Br` [I-960], with 7.15[a]; and `Cc1c(N)nsc1C(=O)NCc1c(F)ccc(F)c1F` [I-596], with 1.49[a].

As to `COc1ccc(CNc2nsc(C(=O)NCc3ccc(Br)cc3)c2Cl)cc1` [I-366], the LogP is 4.01[a]. Same read-out and setting: then `Nc1nsc(C(=O)NCC2CC2)c1Cl` [I-337], with 1.30[a].

On to `N#Cc1ccc(CNC(=O)c2snc(NC(=O)C(F)F)c2Cl)cc1` [I-813], for which the LogP was 1.68[a]. Turning to `O=C(NCC1CCCCC1)c1snc(N=S2CCCC2)c1F` [II-055], the “LogP [a]” value is 1.72^[a]. On to `C[C@H](NC(=O)c1snc(Nc2ccccc2)c1Cl)C1CCCCC1` [I-064], for which the LogP was 4.78[a]. With `COc1ccc(CNc2nsc(C(=O)O)c2Cl)cc1` [E-VIII-002], the “LogP [a]” value was 2.21^[a].

With `Cc1c(N)nsc1C(=O)NCC1CCCCC1` [I-042], the LogP was 2.01[a]. In the case of `O=C(NCCc1ccccc1)c1snc(N=C(c2ccccc2)c2ccccc2)c1Cl` [II-095], the “LogP [a]” value was 4.69^[a]. Regarding `COc1ccc(CNc2nsc(C(=O)NC3CCC4CCCCC4C3)c2Cl)cc1` (centres unmarked) [I-1216], the LogP is 5.24[a]. On the same count and under the same terms, then `Nc1nsc(C(=O)NCc2ccc(Cl)cc2)c1C1CC1` [I-358], with 2.21[a]; and `COc1ccc(CNc2nsc(C(=O)NCc3cncn3C)c2Cl)cc1` [I-1213], with 1.35[a]; and `COc1ccc(CNc2nsc(C(=O)NC(C)c3ccc(Br)cc3)c2Cl)cc1` (centres unmarked) [I-1273], with 4.23[a]. As for `COc1ccc(CNc2nsc(C(=O)NCc3ccc(C4CC4)cc3)c2C2CC2)cc1` [I-600], the LogP is 3.94[a]. With `Cc1c(N)nsc1C(=O)NCc1ccc(F)cc1` [I-050], the LogP was 1.52[a]. The same measure, in the same setting: next, `CCC(NC(=O)c1snc(NCc2ccc(OC)cc2)c1Cl)C1CCCCC1` (centres unmarked) [I-1170]: 4.83[b].

For `COc1ccc(CNc2nsc(C(=O)NC(C)c3ccc(C(F)(F)F)cc3)c2Cl)cc1` (centres unmarked) [I-1276], the LogP was 4.23[a]. The same measure, in the same setting: next, `Nc1nsc(C(=O)NC2CCCCC2c2ccccc2)c1Cl` (centres unmarked) [I-287]: 3.02[a]. Same read-out and setting: then `COc1ccc(CNc2nsc(C(=O)N(Cc3cc(C)c(C)cc3C)C3CC3)c2Cl)cc1` [I-889], with 5.11[a]; and `Cc1cc(C)c(CN(C(=O)c2snc(N)c2Cl)C2CC2)c(C)c1` [I-116], with 3.46[a]; and `CCOc1c(N)nsc1C(=O)NCC1CCCC1` [I-725], with 2.18[a]. Same read-out and setting: then `COc1ccc(CNc2nsc(C(=O)NCc3ncccc3OC)c2Cl)cc1` [I-1271], with 2.70[a]; and `Nc1nsc(C(=O)NCCc2ccc(Cl)cc2)c1Cl` [I-971], with 2.46[a].

As to `COc1ccc(CNc2nsc(C(=O)NC(c3cncnc3)C(C)C)c2Cl)cc1` (centres unmarked) [I-1251], the LogP was 2.73[a]. Same read-out and setting: next, `Cc1ccnc(CNC(=O)c2snc(N)c2Cl)n1` [I-039]: 0.83[a]; `CC(C)N(Cc1ccc(Cl)cc1Cl)C(=O)c1cc(N(Cc2ccccc2)Cc2ccccc2)ns1` [I-941]: 6.48[a].

Consider `COc1ccc(CNc2nsc(C(=O)N(Cc3ccc(C)cc3C)C3CC3)c2Cl)cc1` [I-892], for which the LogP is 4.80[a]. The same measure, in the same setting: then `COc1ccc(CNc2nsc(C(=O)N(C3CC3)C(C)c3cccc(C(F)(F)F)c3)c2Cl)cc1` (centres unmarked) [I-948], with 4.91[a]; and `COc1ccc(CNc2nsc(C(=O)NCCc3ccc(Cl)cc3)c2Cl)cc1` [I-962], with 4.08[a]; and `Nc1nsc(C(=O)NCc2ccccc2C(F)F)c1Cl` [I-124], with 2.01[a]. On the same count and under the same terms, then `COc1ccc(CNc2nsc(C(=O)NC3CCC3)c2Cl)cc1` [I-1195], with 3.15[a]. For `CCOC(=O)c1snc(NC(=O)c2ccc(F)cc2)c1Cl` [E-VII-010], the “LogP [a]” value is 2.62^[a]. Regarding `CCC(C)CNC(=O)c1snc(N)c1Cl` (centres unmarked) [I-1014], the LogP is 1.98[a].

As for `COc1ccc(CNc2nsc(C(=O)NCc3ccc(Cl)c(C(F)(F)F)c3)c2Cl)cc1` [I-1249], the LogP is 4.34[a]. Same read-out and setting: then `COc1ccc(CNc2nsc(C(=O)NCc3cnn(CC(F)F)c3)c2Cl)cc1` [I-1315], with 2.58[a]. Take `CC(C)(C)OC(=O)Nc1nsc(C(=O)O)c1Cl` [E-VIII-001]: the “LogP [a]” value is 1.35^[a]. For `COc1ccc(CNc2nsc(C(=O)NCCC3CCOC3)c2Cl)cc1` (centres unmarked) [I-1196], the LogP is 2.59[a].

For `O=C(NC1CCCC2CCCCC21)c1snc(Cl)c1Cl` (centres unmarked) [E-II-025], the “LogP [a]” value is 5.27^[a]. In the case of `Nc1nsc(C(=O)NCC2CCCCC2)c1-c1ccc(F)cc1` [I-332], the LogP is 2.96[a].

Take `Cc1ccc(CN(C(=O)c2snc(N)c2Cl)C2CC2)c(C)c1` [I-152]: the LogP is 3.09[a]. Take `CCC(=O)Nc1nsc(C(=O)NCC2CCCCC2)c1Cl` [I-109]: the LogP was 2.50[a]. Still for that read-out and setting: then `Nc1nsc(C(=O)N(Cc2c(F)cccc2Cl)C2CC2)c1Cl` [I-210], with 2.73[a]; and `Nc1nsc(C(=O)NCC2CCC(F)(F)CC2)c1F` [I-1297], with 1.66[a]; and `Cc1cc(F)ccc1CNC(=O)c1snc(N)c1Cl` [I-784], with 2.09[a]. Same read-out and setting: next, `CCC1CCCCC1NC(=O)c1snc(NCc2ccc(OC)cc2)c1Cl` (centres unmarked) [I-1215]: 4.49[a]; `COc1ccc(CNc2nsc(C(=O)NCCCn3ccnc3)c2Cl)cc1` [I-1244]: 1.36[a]. Regarding `O=C(NC1CCCC2CCCCC21)c1snc(Cl)c1Cl` (centres unmarked) [E-II-012], the “LogP [a]” value was 5.34^[a]. `O=C(NCC1CCCCC1)c1snc(N(Cc2ccccc2)Cc2ccccc2)c1Br` [I-541]: the LogP is 6.25[a]. Still for that read-out and setting: next, `N#Cc1ccc(CNC(=O)c2snc(N)c2Cl)c(F)c1` [I-202]: 1.64[a]; `CN1C2CCC1CC(NC(=O)c1snc(N)c1Cl)C2` (centres unmarked) [I-607]: −0.20[c]. The same measure, in the same setting: next, `Nc1cc(C(=O)NCc2cc(Cl)cc(Cl)c2)sn1` [I-307]: 2.18[a].

On to `O=C(NCC1CCCCC1)c1snc(N=S2CCCC2)c1Cl` [II-033], for which the “LogP [a]” value is 2.15^[a].

As to `O=C(NCc1ccccc1Cl)c1snc(N=C(c2ccccc2)c2ccccc2)c1Cl` [II-004], the “LogP [a]” value was 4.89^[a]. As for `Nc1nsc(C(=O)NCc2ccccc2)c1Cl` [I-004], the LogP was 1.69[a].

With `Cc1cccc(NC(=O)c2snc(N)c2Cl)c1C` [I-925], the LogP was 2.27[a]. The same measure, in the same setting: then `COc1ccc(CNc2nsc(C(=O)NCC3=CCCCC3)c2Cl)cc1` [I-084], with 4.02[a]; and `COc1ccc(CNc2nsc(C(=O)NC3CCCCC3(C)C)c2Cl)cc1` (centres unmarked) [I-075], with 4.64[a].

In the case of `CC(=O)N(C(C)=O)c1nsc(C(=O)NCc2ccc(C#N)cc2)c1Cl` [I-846], the LogP was 2.12[a]. For `CC(NC(=O)c1snc(N)c1Cl)C1CCCCC1` (centres unmarked) [I-1569], the LogP was 2.84[a]. Same read-out and setting: next, `COC1(CNC(=O)c2snc(N)c2Cl)CCC(C)CC1` (centres unmarked) [I-837]: 2.58[a]; `Nc1nsc(C(=O)NCc2ccc(Oc3ccc(F)cc3)cc2)c1Cl` [I-238]: 3.00[a]; `Cc1c(N)nsc1C(=O)NCc1cc(F)c(F)cc1F` [I-588]: 1.64[a].

In the case of `Cc1c(N)nsc1C(=O)NCc1ccc(Cl)cc1` [I-051], the LogP is 1.86[a]. For `Nc1nsc(C(=O)N(Cc2cc(Cl)cc(C(F)(F)F)c2)C2CC2)c1Cl` [I-216], the LogP was 3.53[a].

As for `Nc1cc(C(=O)NCC2CCC(O)C2)sn1` (centres unmarked) [I-775], the LogP was 0.36[a].

With `CCC(C)CNC(=S)c1snc(N)c1Cl` (centres unmarked) [I-1022], the LogP is 2.87[a]. Still for that read-out and setting: next, `COc1ccc(CNc2nsc(C(=O)NC(=O)C3CCCCC3)c2Cl)cc1` [I-982]: 3.83[a]. Same read-out and setting: next, `Nc1nsc(C(=S)NCc2ccccc2F)c1Cl` [I-1021]: 2.73[a]. Still for that read-out and setting: then `CC(C)(C)OC(=O)Nc1nsc(C(=O)NCC2CCCCC2Cl)c1Cl` (centres unmarked) [I-1581], with 3.56[a]. Take `Nc1nsc(C(=O)NCC2CCOCC2)c1Cl` [I-012]: the LogP was 0.90[a]. Same read-out and setting: next, `COc1ccc(CNc2nsc(C(=O)NCc3cnn(C)c3C)c2Cl)cc1` [I-1341]: 2.33[a]. Still for that read-out and setting: then `CCn1cc(C(C)NC(=O)c2snc(NCc3ccc(OC)cc3)c2Cl)c(C)n1` (centres unmarked) [I-1349], with 2.73[a]. On the same count and under the same terms, then `COc1ccc(CNc2nsc(C(=O)NC(c3ccccc3C)C(C)C)c2Cl)cc1` (centres unmarked) [I-1192], with 4.69[a]. For `CS(C)=Nc1nsc(C(=O)NCC2CCCC2)c1F` [II-061], the “LogP [a]” value is 0.32^[a]. Take `O=C(NC1CCCC2CCCCC21)c1snc(N=CN2CCCC2)c1Cl` (centres unmarked) [II-037]: the “LogP [a]” value is 3.83^[a]. Take `CON(Cc1ccc(F)cc1F)C(=O)c1snc(N)c1Cl` [I-542]: the LogP was 2.50[a].

As to `COc1ccc(CN(Cc2ccc(C)cc2)c2nscc2Cl)cc1` [Z-A-008], the “LogP [a]” value is 5.48^[a]. Still for that read-out and setting: next, `COc1ccc(CNc2cc(C(=O)OC(C)C)sn2)cc1` [E-VII-070]: 3.63^[a]. As to `Nc1nsc(C(=O)NCc2cccc(Cl)c2Cl)c1Cl` [I-019], the LogP was 2.49[a].

As for `O=C(NCC1CCCCC1)c1snc(N(Cc2ccccc2)Cc2ccccc2)c1-c1ccc(F)cc1` [I-318], the LogP was 6.27[a]. Still for that read-out and setting: then `Nc1nsc(C(=S)NCc2ccc(F)cc2F)c1Cl` [I-1016], with 2.74[a].

Staying with this data set, now noted: HPLC LC-UV, acidic range, 0.1% formic acid in water and acetonitrile as eluent.
As for `CCOC(=O)c1cc(N(Cc2ccccc2)Cc2ccccc2)ns1` [E-VII-012, ethyl 3-(dibenzylamino)-1,2-thiazole-5-carboxylate], the chromatographic logP (commonly a lipophilicity value derived from retention on a column) turned out to be 5.13. Same read-out and setting: then `CCOC(=O)c1snc(N(Cc2ccccc2)Cc2ccccc2)c1C(F)F` [E-VII-023, ethyl 3-(dibenzylamino)-4-(difluoromethyl)-1,2-thiazole-5-carboxylate], with 5.68.
